PubChem BioAssay (NCI)
Several values for one entry are separate records, joined by “and”; a condition that tells them apart may be missing. Identical values can stand only once.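 In this assay, cells in 96-well plates receive the compound at five concentrations for 48 hours. Endpoints are linearly interpolated between the surrounding concentrations. GI50 marks 50% less growth. At the TGI there is no net growth.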

Tests used:
Assay in all cases: inhibition of tumour cell growth, NCI panel, 48 h
DU-145 prostate = system: DU-145 prostate
NCI-H460 lung = system: NCI-H460 lung
SNB-19 CNS = system: SNB-19 CNS
T-47D breast = system: T-47D breast
RPMI-8226 leukemia = system: RPMI-8226 leukemia
U251 CNS = system: U251 CNS
786-0 renal = system: 786-0 renal
SNB-75 CNS = system: SNB-75 CNS
MOLT-4 leukemia = system: MOLT-4 leukemia
A549 NSCLC = system: A549 NSCLC

Row | SMILES | GI50 (DU-145 prostate) | TGI (DU-145 prostate) | GI50 (NCI-H460 lung) | TGI (NCI-H460 lung) | GI50 (SNB-19 CNS) | TGI (SNB-19 CNS) | GI50 (T-47D breast) | TGI (T-47D breast) | GI50 (RPMI-8226 leukemia) | TGI (RPMI-8226 leukemia) | GI50 (U251 CNS) | TGI (U251 CNS) | GI50 (786-0 renal) | TGI (786-0 renal) | GI50 (SNB-75 CNS) | TGI (SNB-75 CNS) | GI50 (MOLT-4 leukemia) | TGI (MOLT-4 leukemia) | GI50 (A549 NSCLC) | TGI (A549 NSCLC)
1 | O=P([O-])(O)OP(=O)([O-])O.[NH-][C@H]1CCCC[C@@H]1[NH-].[OH-].[OH-].[Pt+4] | 33.3 µM | > 100 µM | 34.5 µM | > 100 µM | 21.7 µM | 49.7 µM | 25 µM | 61.4 µM | > 100 µM | > 100 µM | 17.2 µM | 33.8 µM | 29.5 µM | 76.2 µM | 20.4 µM | 41 µM | > 100 µM | > 100 µM | – | –
2 | COc1ccc(-c2[nH]ncc2-c2cc3c(c(OC)c2)OCC(=O)N3)cc1 | 1.18 µM | > 100 µM | 0.365 µM | 4.79 µM | 0.619 µM | > 100 µM | 0.406 µM | 42.9 µM | 0.796 µM | 18.9 µM | 0.481 µM | > 100 µM | 1.21 µM | > 100 µM | 0.196 µM | 0.797 µM | 0.528 µM | > 34.6 µM | 1.44 µM | > 100 µM
3 | C=C(CNC(=O)Nc1ccc(-c2ccccc2)cc1)c1ccc(C(=O)Nc2ccccc2N)cc1 | 27.7 µM | > 100 µM | > 100 µM | > 100 µM | 98.7 µM | > 100 µM | > 100 µM | > 100 µM | 20.4 µM | > 100 µM | 47.9 µM | > 100 µM | > 100 µM | > 100 µM | 30.6 µM | 96.2 µM | 30.5 µM | > 100 µM | > 100 µM | > 100 µM
4 | CC(C)[C@](O)(c1ccc2cc(OC(F)F)c(OC(F)F)cc2c1)c1cn[nH]n1 | 19.1 µM and 16.4 µM | 45.6 µM and 32 µM | 18.9 µM and 17.7 µM | 34.9 µM and 34.3 µM | 22 µM and 15.7 µM | 51 µM and 41.8 µM | 3.73 µM and 15.5 µM | 53.4 µM and 71.1 µM | 24.9 µM and 18.2 µM | 68.4 µM and 53 µM | 16.5 µM and 16.1 µM | 33.5 µM and 32 µM | 17.8 µM and 16.9 µM | 39.4 µM and 39.9 µM | 11.8 µM and 9.7 µM | 36.1 µM and 27.1 µM | 30.1 µM and 17.1 µM | 82.7 µM and 62 µM | 23.5 µM and 19.5 µM | 59.7 µM and 47.6 µM
5 | CCOc1ccc2nc(NC(=O)C(=O)C(C(=O)c3ccccc3-c3ccccc3)C3OC(=O)c4ccccc43)sc2c1 (stereo unspecified) | – | 56.1 µM | – | 42.7 µM | – | 36.3 µM | – | 60.7 µM | – | 52.4 µM | – | 31.7 µM | – | 34.6 µM | – | 61.6 µM | – | 99.6 µM | – | > 71.2 µM
6 | O=C(c1ccc2ccccc2c1O)N1CCCCC1 | – | > 100 µM | – | > 100 µM | – | > 100 µM | – | > 100 µM | – | 95.9 µM | – | > 100 µM | – | > 100 µM | – | > 100 µM | – | 59.3 µM | – | –
7 | C=CC(=O)Nc1ccc(Nc2nccc(-c3ccc(N4CCCC4)c(C#N)c3)n2)cc1 | 14.1 µM | > 25 µM | 4.61 µM | > 25 µM | > 25 µM | > 25 µM | > 25 µM | > 25 µM | 10.1 µM | > 25 µM | 15.4 µM | > 25 µM | 0.663 µM | 3.87 µM | 3.37 µM | > 25 µM | 7.43 µM | > 25 µM | 11 µM | > 25 µM
8 | OCCOc1ccc(-c2cc(-c3ccccn3)nc(-c3ccccn3)c2)cc1 | – | > 30.5 µM | – | 3.69 µM | – | > 100 µM | – | > 100 µM | – | > 96.7 µM | – | > 100 µM | – | 13.9 µM | – | 26.1 µM | – | 22.6 µM | – | > 39.5 µM
9 | CC/C(Cc1ccccc1)=C(\c1ccc(OCCN2CCCCCC2)cc1)c1ccc(OC(=O)NCc2ccccc2)cc1 | 3.52 µM | 10.3 µM | 0.966 µM | 1.83 µM | 3.7 µM | 10.4 µM | 0.916 µM | 7.91 µM | 1.16 µM | 2.87 µM | 1.77 µM | 5.48 µM | 1.38 µM | 4.43 µM | 6.09 µM | 13.2 µM | 1.15 µM | 3.78 µM | 2.48 µM | 8.64 µM
10 | Nc1ncnc2c1ncn2C1OC(COP(=O)(O)CP(=O)(O)O)C(O)C1O (stereo unspecified) | – | > 100 µM | – | – | – | > 100 µM | – | > 100 µM | – | > 100 µM | – | > 100 µM | – | > 100 µM | – | > 100 µM | – | > 100 µM | – | > 100 µM
11 | CC1=NN(C(=O)c2ccccc2O)C(=O)/C1=C/c1ccc([N+](=O)[O-])cc1 | 0.327 µM | > 100 µM | 0.414 µM | > 100 µM | 0.464 µM | > 100 µM | 0.222 µM | > 100 µM | 0.784 µM | > 100 µM | 0.516 µM | > 100 µM | 0.774 µM | > 100 µM | 0.0532 µM | > 100 µM | 0.35 µM | > 100 µM | 0.357 µM | > 100 µM
12 | CNC(=O)c1cc(COc2nnc(Nc3ccc(Cl)cc3)c3ccoc23)ccn1 | 9.43 µM and > 10 µM | 26 µM and > 10 µM | 4.21 µM and > 10 µM | 20.9 µM and > 10 µM | 2.88 µM and > 10 µM | 21.4 µM and > 10 µM | 2.87 µM and 5.77 µM | 12.5 µM and > 10 µM | 19.4 µM and > 10 µM | > 82.7 µM | 5.34 µM and 4.26 µM | 16.8 µM and > 10 µM | 2.36 µM and > 10 µM | 6.7 µM and > 10 µM | 0.769 µM and 2.78 µM | 4.71 µM and > 10 µM | 22.6 µM and > 10 µM | > 81.3 µM | 4.66 µM and > 10 µM | 20.1 µM and > 10 µM
13 | Cc1c2cnccc2c(C)c2c1c1cc(C3OCCCO3)ccc1n2C | 0.371 µM | 1.58 µM | 0.293 µM | 1.15 µM | 0.295 µM | 2.97 µM | 0.299 µM | 3.16 µM | 0.282 µM | 1.28 µM | 0.308 µM | 1.33 µM | 0.457 µM | 3.25 µM | 0.257 µM | 1.37 µM | 0.332 µM | 1.74 µM | 0.461 µM | 2.5 µM
14 | CO[C@H](C(=O)[C@@H](O)[C@@H](C)O)[C@@H]1Cc2cc3cc(O[C@H]4C[C@@H](O[C@H]5C[C@@H](O)[C@H](O)C(C)O5)[C@H](O)C(C)O4)c(C)c(O)c3c(O)c2C(=O)[C@H]1O[C@H]1C[C@@H](O[C@H]2C[C@@H](O[C@H]3C[C@@H](OC)[C@H](O)C(C)O3)[C@@H](O)C(C)O2)C(O)(O)C(C)O1 (stereo partly specified) | 0.237 µM | > 25 µM | 0.033 µM | > 25 µM | 0.0971 µM | > 25 µM | 0.0543 µM | 24.6 µM | 0.182 µM | > 11.4 µM | 0.0329 µM | > 25 µM | 0.164 µM | > 25 µM | 0.148 µM | 3.53 µM | 0.57 µM | > 25 µM | 0.0843 µM | > 25 µM
